Structures are written as SMILES. Where only a bound is given, the exact number is not on record here.

In one experiment the target is T1, Serine protease 1 (Bos taurus, UniProt P00760).
T1 sequence (P00760 whole entry): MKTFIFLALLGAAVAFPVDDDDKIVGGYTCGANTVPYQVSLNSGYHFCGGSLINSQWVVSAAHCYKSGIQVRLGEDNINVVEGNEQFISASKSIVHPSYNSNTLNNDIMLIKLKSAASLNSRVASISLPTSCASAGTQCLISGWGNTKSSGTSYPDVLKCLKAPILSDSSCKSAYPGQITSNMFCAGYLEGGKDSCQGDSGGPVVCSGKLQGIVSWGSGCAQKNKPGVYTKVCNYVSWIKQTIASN
Nature of the experiment: Compound was tested for inhibitory activity against bovine trypsin.

A further experiment deals with Coagulation factor X (Homo sapiens, UniProt P00742). Kind of experiment: Compound was tested for inhibitory activity against human Coagulation factor X.
The target of the next experiment is Prothrombin (Homo sapiens, UniProt P00734). Kind of experiment: Compound was tested for inhibitory activity against human thrombin.

Sequence of Coagulation factor X (P00742 41-179 limits assumed): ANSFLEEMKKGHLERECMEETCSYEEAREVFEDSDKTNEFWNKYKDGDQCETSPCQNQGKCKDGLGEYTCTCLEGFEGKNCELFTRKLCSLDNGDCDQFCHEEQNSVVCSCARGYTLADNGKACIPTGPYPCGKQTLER
Sequence of Coagulation factor X (P00742 235-488 limits assumed): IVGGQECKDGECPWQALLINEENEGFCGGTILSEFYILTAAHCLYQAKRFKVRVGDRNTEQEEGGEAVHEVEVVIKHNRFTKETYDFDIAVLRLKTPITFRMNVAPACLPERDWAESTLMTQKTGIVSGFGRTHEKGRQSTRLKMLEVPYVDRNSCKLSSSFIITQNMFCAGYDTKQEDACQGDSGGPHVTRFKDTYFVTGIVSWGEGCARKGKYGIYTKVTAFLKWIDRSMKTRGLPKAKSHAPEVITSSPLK

On to `Cc1nc2c(Oc3cc(C(=N)N)ccc3O)nc(Oc3cccc(C(=O)N(C)C)c3)nc2n1Cc1ccccc1`, for which the Ki – broadly, the equilibrium dissociation constant of an inhibitor or competing ligand from its target – at Serine protease 1 worked out at 150 nM; at Coagulation factor X, 0.42 nM; at Prothrombin, 710 nM.
For `CN(C)C(=O)c1cccc(Oc2nc(Oc3cc(C(=N)N)ccc3O)nc3c2NC(=O)CN3)c1`, in that order: 2200 nM, 81 nM and above 5000 nM.
Regarding `N=C(N)c1ccc(/C=C2/CCCC/C(=C/c3ccc(C(=N)N)cc3)C2=O)cc1`, the Ki on Serine protease 1 was determined as 30 nM; at Prothrombin, 430 nM.
The compound `Cc1c(F)c(Oc2cccc(C(=N)N)c2)nc(Oc2cccc(C(=O)N(C)C)c2)c1F` returned a Ki on Prothrombin above 5000 nM.
On to `CN(C)C(=O)c1cccc(Oc2nc3c(c(Oc4cc(C(=N)N)ccc4O)n2)NC(=O)CN3)c1`, for which the values for the Ki on Serine protease 1, on Coagulation factor X and on Prothrombin were 320 nM, 19 nM and 1000 nM, respectively.
For `CN(C)C(=O)c1cccc(Oc2nc(Oc3cc(C(=N)N)ccc3O)nc3c2NC(=O)CO3)c1`, in that order: above 5000 nM, 106 nM and above 5000 nM.
`Cc1nc2c(Oc3cccc(C(=O)N(C)C)c3)nc(Oc3cc(C(=N)N)ccc3O)nc2n1Cc1ccccc1`: the figures for the Ki on Serine protease 1, at Coagulation factor X and at Prothrombin were 760 nM, 10 nM and 1300 nM, respectively.

The record behind these values is ChEMBL document CHEMBL1130936, “Design, synthesis, and biological activity of novel purine and bicyclic pyrimidine factor Xa inhibitors” (Bioorg Med Chem Lett, 1998).
